# Where “and” joins values, the source holds several entries; their conditions need not be identical. Equal values may be shown once.
# Tests used:
# [1] = test system: adjuvant induced arthritis; assay: adjuvant induced arthritis test in the rat (primary and secondary lesions); format: in vivo, rat (Royal Hart, Wistar strain)
# Description: (§1) Groups of three Royal Hart, Wistar strain rats, weighing 200±10 g. each were injected intradermally in the right hind paw with Freund's adjuvant (dried human tubercle bacilli in a mineral oil vehicle) at a dose of 2 mg./kg. of body weight. Test compositions were administered orally in a 1.5% starch vehicle at various doses once daily on days 0 through 13 post challenge. Control rats were treated in a similar manner, but given only starch vehicle. On the 14th, 21st, 28th and 35th days post challenge the diameter of the injected paw (primary lesion) was measured by micrometer caliper. The volume of inflamed paws were estimated from these measurements and the results are expressed as percent inhibition of swelling as compared to controls. At the same time, the other inflamed sites, such as ears, paws and tail (secondary lesions) were observed and each rat was graded as to degree of inflammation and swelling present. The grading is based on a scale of 0 to 24, where 0 represents a complete absence of induced arthritic modules and 24 represents the maximum degree of inflammation. The mean grade for each treated group is calculated and the effects of each test compound are expressed as percent inhibition of the control grade. The following Tables I-V record the results of tests conducted with the compositions of this invention and conventional anti-inflammatory agents both separately and in combination. All tests were replicated several times. Each treatment group represents a total of 18 rats. Each challenged control group comprised 36 rats and each unchallenged control group was 9 rats.
# [2] = body weight gain in the adjuvant induced arthritis test in the rat; format: in vivo, rat (Royal Hart, Wistar strain)
# Description: as §1
# arthritic paw swelling = conditions: S. Wong et al. 1973; G. R. Bobalick et al. 1974; cited from earlier work
# [3] = oral 0.25 mg/kg once daily, day 14, 0.25 mg/kg
# [4] = oral 0.5 mg/kg once daily, day 14, 0.5 mg/kg
# [5] = oral 0.5 mg/kg once daily, day 21, 0.5 mg/kg
# [6] = oral 1.0 mg/kg once daily, day 14, 1 mg/kg
# [7] = oral 1.0 mg/kg once daily, day 21, 1 mg/kg
# [8] = oral 25 mg/kg once daily, day 14
# [9] = oral 25 mg/kg once daily, day 21
# [10] = oral 50 mg/kg once daily, day 14
# [11] = oral 50 mg/kg once daily, day 21
# [12] = oral 100 mg/kg once daily, day 14
# [13] = oral 100 mg/kg once daily, day 21
# [14] = oral 50 mg/kg once daily, day 35
# [15] = oral 100 mg/kg once daily, day 21, 100 mg/kg
# [16] = oral 12.5 mg/kg once daily, day 14, 12.5 mg/kg
# [17] = oral 12.5 mg/kg once daily, day 21, 12.5 mg/kg
# [18] = oral 12.5 mg/kg once daily, day 28
# [19] = oral 12.5 mg/kg once daily, day 35, 12.5 mg/kg
# [20] = oral 25 mg/kg once daily, day 14, 25 mg/kg
# [21] = oral 25 mg/kg once daily, day 21, 25 mg/kg
# [22] = oral 25 mg/kg once daily, day 28, 25 mg/kg
# [23] = oral 25 mg/kg once daily, day 35, 25 mg/kg
# [24] = oral 25 mg/kg once daily, day 28
# [25] = oral 25 mg/kg once daily, day 35
# [26] = oral 50 mg/kg once daily, day 28
# [27] = oral 5 mg/kg once daily, day 14
# [28] = oral 5 mg/kg once daily, day 21
# [29] = oral 5 mg/kg once daily, day 28
# [30] = oral 5 mg/kg once daily, day 35
# [31] = oral 10 mg/kg once daily, day 14
# [32] = oral 10 mg/kg once daily, day 21
# [33] = oral 10 mg/kg once daily, day 28
# [34] = oral 10 mg/kg once daily, day 35
smiles,measurement,setting,value
"COc1ccc2c(c1)c(CC(=O)O)c(C)n2C(=O)c1ccc(Cl)cc1 [Indomethacin, 1-(4-chlorobenzoyl)-5-methoxy-2-methyl-1H-indole-3-acetic acid, reference compound]",Primary Lesions (% Inhibition),[1]; [3],29% and 44%
same,Secondary Lesions (% Inhibition),[1]; [3],22% and 25%
same,Primary Lesions (% Inhibition),[1]; [4],50% and 41%
same,Primary Lesions (% Inhibition),"[1]; oral 0.5 mg/kg once daily, day 21",8%
same,Secondary Lesions (% Inhibition),[1]; [5],10% and 3%
same,Primary Lesions (% Inhibition),[1]; [6],63% and 57%
same,Secondary Lesions (% Inhibition),[1]; [6],54% and 48%
same,Primary Lesions (% Inhibition),[1]; [7],27% and 24%
same,Secondary Lesions (% Inhibition),[1]; [7],30% and 27%
same,Body Weight Gain in Grams,[2]; [3],59 Grams and 43 Grams
same,Body Weight Gain in Grams,"[2]; oral 0.25 mg/kg once daily, day 21, 0.25 mg/kg",45 Grams and 46 Grams
same,Body Weight Gain in Grams,[2]; [4],71 Grams and 61 Grams
same,Body Weight Gain in Grams,[2]; [5],57 Grams and 51 Grams
same,Body Weight Gain in Grams,[2]; [6],92 Grams and 76 Grams
same,Body Weight Gain in Grams,[2]; [7],84 Grams and 70 Grams
same,arthritic paw swelling,arthritic paw swelling,inhibit arthritic paw swelling
same,joint and bone deterioration,arthritic paw swelling,prevent joint and bone deterioration
N#CCC(=N)c1ccccc1 [Benzimidoylacetonitrile],Primary Lesions (% Inhibition),[1]; [8],56%
same,Secondary Lesions (% Inhibition),[1]; [8],63%
same,Primary Lesions (% Inhibition),[1]; [9],33%
same,Secondary Lesions (% Inhibition),[1]; [9],24%
same,Primary Lesions (% Inhibition),[1]; [10],68%
same,Secondary Lesions (% Inhibition),[1]; [10],70%
same,Primary Lesions (% Inhibition),[1]; [11],58%
same,Secondary Lesions (% Inhibition),[1]; [11],43%
same,Primary Lesions (% Inhibition),[1]; [12],68%
same,Secondary Lesions (% Inhibition),[1]; [12],75%
same,Primary Lesions (% Inhibition),[1]; [13],55%
same,Secondary Lesions (% Inhibition),[1]; [13],34%
same,Body Weight Gain in Grams,[2]; [8],72 Grams
same,Body Weight Gain in Grams,[2]; [9],66 Grams
same,Body Weight Gain in Grams,[2]; [10],77 Grams
same,Body Weight Gain in Grams,[2]; [11],80 Grams
same,Body Weight Gain in Grams,[2]; [12],70 Grams
same,Body Weight Gain in Grams,[2]; [13],88 Grams
"CC(=O)Oc1ccccc1C(=O)O [Aspirin, 2-(acetyloxy)benzoic acid, reference compound]",Primary Lesions (% Inhibition),"[1]; oral 50 mg/kg once daily, day 14, 50 mg/kg",21% and 16%
same,Secondary Lesions (% Inhibition),"[1]; oral 50 mg/kg once daily, day 21, 50 mg/kg",12% and 10%
same,Secondary Lesions (% Inhibition),"[1]; oral 50 mg/kg once daily, day 28, 50 mg/kg",31% and 20%
same,Primary Lesions (% Inhibition),[1]; [14],0%
same,Primary Lesions (% Inhibition),[1]; [15],8% and 2%
same,Primary Lesions (% Inhibition),"[1]; oral 100 mg/kg once daily, day 35, 100 mg/kg",5% and 1%
same,Body Weight Gain in Grams,"[2]; oral 100 mg/kg once daily, day 14, 100 mg/kg",45 Grams and 47 Grams
same,Body Weight Gain in Grams,[2]; [15],42 Grams and 46 Grams
same,Body Weight Gain in Grams,"[2]; oral 100 mg/kg once daily, day 28, 100 mg/kg",44 Grams and 57 Grams
N#CCC(=O)c1ccccc1 [Benzoylacetonitrile],Primary Lesions (% Inhibition),[1]; [16],44% and 49%
same,Secondary Lesions (% Inhibition),[1]; [16],45% and 59%
same,Primary Lesions (% Inhibition),[1]; [17],16% and 32%
same,Secondary Lesions (% Inhibition),[1]; [18],25%
same,Secondary Lesions (% Inhibition),[1]; [19],22% and 26%
same,Primary Lesions (% Inhibition),[1]; [20],60% and 62% and 36%
same,Secondary Lesions (% Inhibition),[1]; [20],70% and 62% and 50%
same,Primary Lesions (% Inhibition),[1]; [21],36% and 38% and 24%
same,Secondary Lesions (% Inhibition),[1]; [22],20% and 19%
same,Secondary Lesions (% Inhibition),[1]; [23],38% and 20%
same,Primary Lesions (% Inhibition),[1]; [10],60%
same,Secondary Lesions (% Inhibition),[1]; [10],66%
same,Primary Lesions (% Inhibition),[1]; [11],45%
same,Secondary Lesions (% Inhibition),[1]; [11],43%
same,Primary Lesions (% Inhibition),[1]; [12],55%
same,Secondary Lesions (% Inhibition),[1]; [12],76%
same,Primary Lesions (% Inhibition),[1]; [13],54%
same,Secondary Lesions (% Inhibition),[1]; [13],56%
same,Body Weight Gain in Grams,[2]; [16],57 Grams and 49 Grams
same,Body Weight Gain in Grams,[2]; [17],53 Grams and 38 Grams
same,Body Weight Gain in Grams,[2]; [18],55 Grams
same,Body Weight Gain in Grams,[2]; [19],81 Grams and 68 Grams
same,Body Weight Gain in Grams,[2]; [20],52 Grams and 47 Grams and 57 Grams
same,Body Weight Gain in Grams,[2]; [21],52 Grams and 47 Grams and 57 Grams
same,Body Weight Gain in Grams,[2]; [22],75 Grams and 51 Grams
same,Body Weight Gain in Grams,[2]; [23],86 Grams and 69 Grams
same,Body Weight Gain in Grams,[2]; [10],58 Grams
same,Body Weight Gain in Grams,[2]; [11],62 Grams
same,Body Weight Gain in Grams,[2]; [12],56 Grams
same,Body Weight Gain in Grams,[2]; [13],79 Grams
N#CCC(=O)c1ccc(F)cc1 [(p-Fluorobenzoyl)-acetonitrile],Primary Lesions (% Inhibition),[1]; [8],30%
same,Secondary Lesions (% Inhibition),[1]; [8],23%
same,Primary Lesions (% Inhibition),[1]; [9],17%
same,Secondary Lesions (% Inhibition),[1]; [9],0%
same,Primary Lesions (% Inhibition),[1]; [24],0%
same,Secondary Lesions (% Inhibition),[1]; [24],0%
same,Primary Lesions (% Inhibition),[1]; [25],6%
same,Secondary Lesions (% Inhibition),[1]; [25],7%
same,Primary Lesions (% Inhibition),[1]; [10],53%
same,Secondary Lesions (% Inhibition),[1]; [10],34%
same,Primary Lesions (% Inhibition),[1]; [11],32%
same,Secondary Lesions (% Inhibition),[1]; [11],10%
same,Primary Lesions (% Inhibition),[1]; [26],27%
same,Secondary Lesions (% Inhibition),[1]; [26],28%
same,Primary Lesions (% Inhibition),[1]; [14],22%
same,Secondary Lesions (% Inhibition),[1]; [14],19%
same,Body Weight Gain in Grams,[2]; [8],71 Grams
same,Body Weight Gain in Grams,[2]; [9],65 Grams
same,Body Weight Gain in Grams,[2]; [24],80 Grams
same,Body Weight Gain in Grams,[2]; [25],111 Grams
same,Body Weight Gain in Grams,[2]; [10],75 Grams
same,Body Weight Gain in Grams,[2]; [11],77 Grams
same,Body Weight Gain in Grams,[2]; [26],93 Grams
same,Body Weight Gain in Grams,[2]; [14],125 Grams
"C[C@]12C=CC(=O)C=C1CC[C@@H]1[C@@H]2[C@@H](O)C[C@@]2(C)[C@H]1CC[C@]2(O)C(=O)CO [Prednisolone, reference compound]",Primary Lesions (% Inhibition),[1]; [27],63%
same,Secondary Lesions (% Inhibition),[1]; [27],45%
same,Primary Lesions (% Inhibition),[1]; [28],24%
same,Secondary Lesions (% Inhibition),[1]; [28],16%
same,Primary Lesions (% Inhibition),[1]; [29],17%
same,Secondary Lesions (% Inhibition),[1]; [29],5%
same,Primary Lesions (% Inhibition),[1]; [30],11%
same,Secondary Lesions (% Inhibition),[1]; [30],20%
same,Primary Lesions (% Inhibition),[1]; [31],57%
same,Secondary Lesions (% Inhibition),[1]; [31],55%
same,Primary Lesions (% Inhibition),[1]; [32],24%
same,Secondary Lesions (% Inhibition),[1]; [32],21%
same,Primary Lesions (% Inhibition),[1]; [33],14%
same,Secondary Lesions (% Inhibition),[1]; [33],3%
same,Primary Lesions (% Inhibition),[1]; [34],13%
same,Secondary Lesions (% Inhibition),[1]; [34],17%
same,Body Weight Gain in Grams,[2]; [27],22 Grams
same,Body Weight Gain in Grams,[2]; [28],26 Grams
same,Body Weight Gain in Grams,[2]; [29],44 Grams
same,Body Weight Gain in Grams,[2]; [30],71 Grams
same,Body Weight Gain in Grams,[2]; [31],23 Grams
same,Body Weight Gain in Grams,[2]; [32],47 Grams
same,Body Weight Gain in Grams,[2]; [33],75 Grams
same,Body Weight Gain in Grams,[2]; [34],95 Grams
N#CC=C(N)c1cccs1 [β-Amino-2-thiopheneacrylonitrile],Primary Lesions (% Inhibition),[1]; [10],16%
same,Secondary Lesions (% Inhibition),[1]; [10],13%
same,Primary Lesions (% Inhibition),[1]; [11],14%
same,Secondary Lesions (% Inhibition),[1]; [11],0%
same,Primary Lesions (% Inhibition),[1]; [26],6%
same,Secondary Lesions (% Inhibition),[1]; [26],4%
same,Primary Lesions (% Inhibition),[1]; [14],1%
same,Secondary Lesions (% Inhibition),[1]; [14],11%
same,Body Weight Gain in Grams,[2]; [10],63 Grams
same,Body Weight Gain in Grams,[2]; [11],66 Grams
same,Body Weight Gain in Grams,[2]; [26],76 Grams
same,Body Weight Gain in Grams,[2]; [14],108 Grams

# — patent US4325949A, “Combinations of agents which give enhanced anti-inflammatory activity” (American Cyanamid Company, priority 1980, dated 1982)
